# According to the supplement of paper PMC12463676, “Small-molecule dissolution of stress granules by redox modulation benefits ALS models” (Nature Chemical Biology, 2025):
# Key:
# potassium arsenate = compound: O=[As]([O-])(O)O.[K+] [potassium arsenate]; assay: thermal stability z-score vs DMSO; higher = more thermally stabilized by treatment; conditions: HeLa; arsenate concentration 1 mM
# Experimental: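 Cellular thermal proteome profiling in HeLa cells treated with 1 mM arsenate for 1 h (DMSO pretreatment), heated to ten temperatures (37-66.3 °C). Soluble protein was quantified by TMT mass spectrometry relative to DMSO controls; the thermal stability score was transformed to a z-score; mean of n = 3 experiments.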
# lipoamide = compound: NC(=O)CCCCC1CCSS1 [lipoamide]; assay: as above; conditions: HeLa, lipoamide concentration 100 µM
# Experimental: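 Cellular thermal proteome profiling in HeLa cells. Cells were treated with 100 µM lipoamide for 1 h, with or without 1 mM arsenate for a further 1 h, then heated to ten temperatures (37-66.3 °C), and soluble protein was quantified by TMT mass spectrometry relative to 0.1% DMSO controls. The thermal stability score (sum of log2 fold changes minus the abundance score) was transformed to a z-score; mean of n = 3 experiments.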
# [1] = arsenate co-treatment: 1 mM arsenate 1 h
# 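Further: each temperature applied for 3 min, abundance score taken as mean log2 fold change at the two lowest temperatures, z-score obtained by mean subtraction and division by SD.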
# Chain of UniProt P15408 (P15408 whole entry): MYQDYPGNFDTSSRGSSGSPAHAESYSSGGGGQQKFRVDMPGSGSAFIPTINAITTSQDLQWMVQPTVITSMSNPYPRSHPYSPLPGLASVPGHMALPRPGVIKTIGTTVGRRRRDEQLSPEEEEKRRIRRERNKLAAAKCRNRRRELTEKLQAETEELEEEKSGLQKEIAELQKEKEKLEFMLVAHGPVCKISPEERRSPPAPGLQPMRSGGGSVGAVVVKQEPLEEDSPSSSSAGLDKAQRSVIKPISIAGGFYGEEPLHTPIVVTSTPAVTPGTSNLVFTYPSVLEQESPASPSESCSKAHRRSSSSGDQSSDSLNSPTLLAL
# Chain of UniProt Q9Y266 (Q9Y266 whole entry): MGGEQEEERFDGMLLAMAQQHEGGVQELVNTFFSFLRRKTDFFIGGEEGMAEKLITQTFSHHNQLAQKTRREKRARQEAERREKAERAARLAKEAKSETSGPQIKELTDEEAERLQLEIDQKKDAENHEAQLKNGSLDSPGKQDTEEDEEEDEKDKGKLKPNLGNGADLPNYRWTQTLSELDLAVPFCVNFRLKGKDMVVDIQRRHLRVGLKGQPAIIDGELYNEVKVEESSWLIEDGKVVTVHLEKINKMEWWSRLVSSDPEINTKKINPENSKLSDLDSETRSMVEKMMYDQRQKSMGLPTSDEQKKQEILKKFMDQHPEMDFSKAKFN
# Chain of UniProt Q9H900 (Q9H900 whole entry): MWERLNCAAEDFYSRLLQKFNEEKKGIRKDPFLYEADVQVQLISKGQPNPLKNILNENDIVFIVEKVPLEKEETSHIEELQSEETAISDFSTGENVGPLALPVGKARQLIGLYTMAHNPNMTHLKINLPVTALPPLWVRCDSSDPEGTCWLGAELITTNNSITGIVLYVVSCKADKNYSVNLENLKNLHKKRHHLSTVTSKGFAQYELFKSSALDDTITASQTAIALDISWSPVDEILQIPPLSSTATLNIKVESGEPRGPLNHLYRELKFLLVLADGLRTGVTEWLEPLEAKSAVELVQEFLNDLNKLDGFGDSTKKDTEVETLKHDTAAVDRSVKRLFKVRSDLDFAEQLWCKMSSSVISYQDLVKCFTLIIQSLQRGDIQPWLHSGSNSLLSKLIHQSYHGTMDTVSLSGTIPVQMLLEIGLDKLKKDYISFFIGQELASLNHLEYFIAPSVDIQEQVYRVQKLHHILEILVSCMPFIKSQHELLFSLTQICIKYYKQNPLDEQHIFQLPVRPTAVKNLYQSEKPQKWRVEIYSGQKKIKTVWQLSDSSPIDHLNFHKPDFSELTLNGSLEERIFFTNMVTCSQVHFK
# Chain of UniProt Q9NZJ6 (Q9NZJ6 whole entry): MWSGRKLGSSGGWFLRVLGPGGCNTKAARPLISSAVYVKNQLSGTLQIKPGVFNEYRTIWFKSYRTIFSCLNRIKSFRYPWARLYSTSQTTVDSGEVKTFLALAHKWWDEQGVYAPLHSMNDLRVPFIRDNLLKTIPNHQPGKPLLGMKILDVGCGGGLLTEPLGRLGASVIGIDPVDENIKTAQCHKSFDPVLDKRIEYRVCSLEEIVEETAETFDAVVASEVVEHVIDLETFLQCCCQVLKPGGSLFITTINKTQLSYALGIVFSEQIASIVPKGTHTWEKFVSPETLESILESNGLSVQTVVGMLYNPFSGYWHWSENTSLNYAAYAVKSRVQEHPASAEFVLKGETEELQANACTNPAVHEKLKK
# Chain of UniProt Q9Y5A9 (Q9Y5A9 whole entry): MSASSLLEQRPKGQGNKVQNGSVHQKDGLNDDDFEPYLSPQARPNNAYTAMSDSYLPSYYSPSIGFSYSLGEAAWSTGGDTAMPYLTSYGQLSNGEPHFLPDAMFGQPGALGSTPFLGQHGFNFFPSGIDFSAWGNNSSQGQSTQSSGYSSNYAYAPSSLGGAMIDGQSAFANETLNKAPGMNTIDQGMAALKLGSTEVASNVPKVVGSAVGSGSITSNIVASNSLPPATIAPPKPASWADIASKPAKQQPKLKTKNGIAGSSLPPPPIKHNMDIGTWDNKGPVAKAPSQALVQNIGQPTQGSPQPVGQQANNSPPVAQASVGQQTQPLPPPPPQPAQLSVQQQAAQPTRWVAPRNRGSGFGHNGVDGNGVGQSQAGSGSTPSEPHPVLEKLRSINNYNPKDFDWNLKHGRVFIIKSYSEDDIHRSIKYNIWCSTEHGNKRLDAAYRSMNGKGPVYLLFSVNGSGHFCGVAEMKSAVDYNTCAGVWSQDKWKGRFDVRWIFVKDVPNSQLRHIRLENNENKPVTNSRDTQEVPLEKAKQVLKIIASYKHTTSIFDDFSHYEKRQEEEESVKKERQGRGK
# Chain of UniProt Q9Y255 (Q9Y255 whole entry): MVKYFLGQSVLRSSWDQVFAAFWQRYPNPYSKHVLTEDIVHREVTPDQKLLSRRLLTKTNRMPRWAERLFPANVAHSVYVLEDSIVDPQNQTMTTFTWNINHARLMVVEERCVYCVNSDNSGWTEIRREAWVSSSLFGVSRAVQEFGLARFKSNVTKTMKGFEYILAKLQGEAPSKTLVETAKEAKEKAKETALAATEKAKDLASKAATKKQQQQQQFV
# Chain of UniProt Q9UHR5 (Q9UHR5 whole entry): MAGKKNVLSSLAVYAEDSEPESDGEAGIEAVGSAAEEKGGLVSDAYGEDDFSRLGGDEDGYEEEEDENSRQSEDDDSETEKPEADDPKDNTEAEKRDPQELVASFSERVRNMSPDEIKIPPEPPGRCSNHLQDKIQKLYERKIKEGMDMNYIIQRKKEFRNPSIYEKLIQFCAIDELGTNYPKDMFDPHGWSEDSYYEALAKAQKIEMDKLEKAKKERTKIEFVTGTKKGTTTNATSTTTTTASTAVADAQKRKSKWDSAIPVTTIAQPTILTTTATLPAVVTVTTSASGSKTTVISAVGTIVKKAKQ
# Chain of UniProt Q9UIC8 (Q9UIC8 whole entry): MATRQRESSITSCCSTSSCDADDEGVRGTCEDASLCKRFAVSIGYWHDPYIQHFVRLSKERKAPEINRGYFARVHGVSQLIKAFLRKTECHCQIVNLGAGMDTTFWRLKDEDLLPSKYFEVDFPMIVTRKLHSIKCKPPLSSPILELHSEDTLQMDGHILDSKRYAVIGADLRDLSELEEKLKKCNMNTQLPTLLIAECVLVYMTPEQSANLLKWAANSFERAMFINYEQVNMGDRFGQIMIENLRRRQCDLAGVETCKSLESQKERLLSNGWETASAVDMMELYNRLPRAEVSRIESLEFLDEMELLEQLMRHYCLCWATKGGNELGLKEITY
# Chain of UniProt Q86U44 (Q86U44 whole entry): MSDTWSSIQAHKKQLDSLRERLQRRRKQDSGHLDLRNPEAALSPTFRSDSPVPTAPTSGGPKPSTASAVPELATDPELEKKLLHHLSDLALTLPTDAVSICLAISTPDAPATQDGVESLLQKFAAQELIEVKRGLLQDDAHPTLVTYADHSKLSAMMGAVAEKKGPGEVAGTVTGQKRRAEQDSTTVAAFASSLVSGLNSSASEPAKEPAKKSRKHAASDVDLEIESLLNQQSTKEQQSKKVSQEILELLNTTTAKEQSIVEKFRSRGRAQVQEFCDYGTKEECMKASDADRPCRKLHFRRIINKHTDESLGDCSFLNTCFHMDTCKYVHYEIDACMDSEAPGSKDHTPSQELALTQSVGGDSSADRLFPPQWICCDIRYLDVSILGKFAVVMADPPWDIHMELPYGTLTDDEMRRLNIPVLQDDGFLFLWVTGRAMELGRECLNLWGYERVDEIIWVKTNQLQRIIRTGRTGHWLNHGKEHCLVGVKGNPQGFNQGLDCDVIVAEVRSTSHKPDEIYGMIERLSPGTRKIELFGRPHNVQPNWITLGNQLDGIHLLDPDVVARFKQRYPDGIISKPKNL
# Chain of UniProt Q9H4A6 (Q9H4A6 whole entry): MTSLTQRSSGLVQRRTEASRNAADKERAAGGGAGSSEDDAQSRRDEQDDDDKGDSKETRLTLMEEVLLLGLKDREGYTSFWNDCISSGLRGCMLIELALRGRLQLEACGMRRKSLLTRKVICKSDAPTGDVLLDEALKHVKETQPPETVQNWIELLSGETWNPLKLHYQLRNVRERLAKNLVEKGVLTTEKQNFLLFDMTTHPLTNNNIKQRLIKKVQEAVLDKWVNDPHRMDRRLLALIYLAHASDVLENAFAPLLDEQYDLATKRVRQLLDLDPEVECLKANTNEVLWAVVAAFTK
# Chain of UniProt Q6IBS0 (Q6IBS0 whole entry): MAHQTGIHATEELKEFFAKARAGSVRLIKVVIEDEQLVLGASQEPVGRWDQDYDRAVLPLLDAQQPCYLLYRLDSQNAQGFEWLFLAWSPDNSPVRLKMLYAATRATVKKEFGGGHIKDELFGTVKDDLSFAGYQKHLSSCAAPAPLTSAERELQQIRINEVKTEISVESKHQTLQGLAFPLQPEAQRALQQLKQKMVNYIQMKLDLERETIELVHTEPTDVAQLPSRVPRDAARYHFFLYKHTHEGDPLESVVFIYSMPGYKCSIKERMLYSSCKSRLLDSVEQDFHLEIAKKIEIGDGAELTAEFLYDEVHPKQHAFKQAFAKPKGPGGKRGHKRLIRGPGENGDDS
# Chain of UniProt Q9NZC3 (Q9NZC3 whole entry): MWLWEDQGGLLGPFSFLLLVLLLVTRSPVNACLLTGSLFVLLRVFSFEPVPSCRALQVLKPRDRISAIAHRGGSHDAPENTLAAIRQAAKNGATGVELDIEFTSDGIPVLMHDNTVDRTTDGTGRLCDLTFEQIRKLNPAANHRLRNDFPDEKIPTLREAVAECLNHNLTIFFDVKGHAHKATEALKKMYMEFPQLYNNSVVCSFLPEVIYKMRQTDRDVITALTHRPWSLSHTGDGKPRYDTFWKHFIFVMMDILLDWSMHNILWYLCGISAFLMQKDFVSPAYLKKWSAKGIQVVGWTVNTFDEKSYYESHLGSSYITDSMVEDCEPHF
# Chain of UniProt Q5VWZ2 (Q5VWZ2 whole entry): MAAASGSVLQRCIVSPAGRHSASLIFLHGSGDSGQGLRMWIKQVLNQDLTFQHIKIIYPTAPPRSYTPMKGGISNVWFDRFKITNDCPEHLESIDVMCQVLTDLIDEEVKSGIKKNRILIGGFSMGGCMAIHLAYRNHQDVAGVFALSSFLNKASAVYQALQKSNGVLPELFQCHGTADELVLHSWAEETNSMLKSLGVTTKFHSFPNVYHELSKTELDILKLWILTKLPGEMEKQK
Target,thermal stability z-score (potassium arsenate),thermal stability z-score (lipoamide; [1]),thermal stability z-score (lipoamide; arsenate co-treatment: none)
GEMIN2 (UniProt O14893),-0.345,-0.139,-0.0485
GCFC2 (UniProt P16383),-0.00138,0.317,0.441
WDR47 (UniProt O94967),-0.0616,0.51,0.317
GHDC (UniProt Q8N2G8),0.229,-0.848,0.229
RRM2B (UniProt Q7LG56),-0.703,0.945,0.415
PCF11 (UniProt O94913),-0.0822,-0.0765,-0.00889
AK1 (UniProt P00568),-0.267,-0.242,0.28
COMMD3 (UniProt Q9UBI1),-1.12,-0.911,-0.0897
CEBPZ (UniProt Q03701),-1.01,0.161,-0.141
LCMT1 (UniProt Q9UIC8),-0.0988,0.437,0.614
PRELID1 (UniProt Q9Y255),-0.054,0.0933,-0.2
GRIPAP1 (UniProt Q4V328),1.53,0.163,0.254
EAF1 (UniProt Q96JC9),-0.000349,1.02,0.0799
RPS27A (UniProt P62979),-1.18,0.106,-0.431
NDUFAB1 (UniProt O14561),0.86,1.77,-0.297
IVNS1ABP (UniProt Q9Y6Y0),-0.145,0.601,0.743
ZC3H8 (UniProt Q8N5P1),-0.576,-0.0194,-0.277
ADAT2 (UniProt Q7Z6V5),-0.708,-0.663,-0.376
TACC1 (UniProt O75410),0.526,0.293,0.0761
TMCO4 (UniProt Q5TGY1),-0.0739,-0.342,-0.363
HN1L,0.214,0.978,0.827
DLG3 (UniProt Q92796),-0.395,-0.116,0.02
PIK3C2B (UniProt O00750),0.971,0.468,0.832
UBIAD1 (UniProt Q9Y5Z9),-0.362,-0.487,-0.317

Target,thermal stability z-score (potassium arsenate),thermal stability z-score (lipoamide; [1]),thermal stability z-score (lipoamide; arsenate co-treatment: none)
FAM3C (UniProt Q92520),0.805,-1.06,-0.89
ETNK1 (UniProt Q9HBU6),0.244,0.392,1.06
COQ3 (UniProt Q9NZJ6),1.9,0.083,0.759
NAA50 (UniProt Q9GZZ1),0.502,0.872,0.589
TSR3 (UniProt Q9UJK0),-1.75,-0.214,-0.723
LYPLAL1 (UniProt Q5VWZ2),0.447,0.152,0.0691
RIC8B (UniProt Q9NVN3),-0.00195,-1.09,-0.233
METTL3 (UniProt Q86U44),0.165,-0.16,0.0119
KIF22 (UniProt Q14807),-0.386,-0.451,0.147
KATNB1 (UniProt Q9BVA0),-0.452,0.145,0.401
WBSCR22 (UniProt O43709),-0.902,-0.223,-0.46
GALE (UniProt Q14376),-2.31,0.0359,-0.161
TARSL2 (UniProt A2RTX5),0.0722,-0.396,0.561
SORCS2 (UniProt Q96PQ0),-0.319,-0.156,-0.45
ABHD6 (UniProt Q9BV23),-0.179,-1.6,-1.07
YTHDF2 (UniProt Q9Y5A9),0.0979,-0.0393,-0.108
CHMP2A (UniProt O43633),0.392,-0.041,0.185
TWF2 (UniProt Q6IBS0),-0.697,-0.088,-0.182
ZNF668 (UniProt Q96K58),-0.073,0.0589,-0.155
ATG4A (UniProt Q8WYN0),-0.744,0.167,0.0706
LIMA1 (UniProt Q9UHB6),-1,-0.552,-0.44
GPR108 (UniProt Q9NPR9),0.967,0.455,-0.359
ATP6V0D1 (UniProt P61421),-0.134,-0.621,-0.115
PPIL1 (UniProt Q9Y3C6),-0.489,-0.0684,-0.42

Target,thermal stability z-score (potassium arsenate),thermal stability z-score (lipoamide; [1]),thermal stability z-score (lipoamide; arsenate co-treatment: none)
LMAN1 (UniProt P49257),0.757,-3.38,-2.78
DCPS (UniProt Q96C86),-0.92,-0.92,-0.621
PWP2 (UniProt Q15269),0.864,-0.256,0.154
MRPL43 (UniProt Q8N983),0.166,-0.191,0.245
HMGA1 (UniProt P17096),-0.692,-0.361,0.993
TERF2 (UniProt Q15554),0.1,-0.0516,-0.042
MITF (UniProt O75030),0.297,-0.413,-0.377
FAM175B (UniProt Q15018),-0.57,0.515,0.293
NUDC (UniProt Q9Y266),0.573,0.104,0.205
GOLPH3 (UniProt Q9H4A6),-0.641,-0.65,-0.881
ATP5H (UniProt O75947),0.504,0.72,0.597
LACE1 (UniProt Q8WV93),-0.0299,0.0464,0.0601
OCIAD1 (UniProt Q9NX40),-0.448,0.0741,-0.143
GDE1 (UniProt Q9NZC3),-1.38,-0.631,-0.947
FLVCR1 (UniProt Q9Y5Y0),-0.43,-0.393,-0.367
FAM195A (UniProt Q9BUT9),-0.164,0.00727,0.202
AIFM2 (UniProt Q9BRQ8),0.776,0.556,-0.298
FOSL2 (UniProt P15408),-2.25,1.86,0.702
NSUN4 (UniProt Q96CB9),-0.318,-0.26,0.337
UFM1 (UniProt P61960),0.181,0.193,0.534
SAP30BP (UniProt Q9UHR5),1.03,0.884,0.612
ZWILCH (UniProt Q9H900),-0.55,-0.3,-0.512
CBR1 (UniProt P16152),0.879,0.136,0.208
